{"source": "patent US9781930B2", "about": "“3′-substituted-abscisic acid derivatives” (Valent BioSciences Corporation, priority 2014, dated 2017)", "test_system": "Arabidopsis thaliana seed", "assay": "Seed germination inhibition assay for testing Examples 1-28 and 47-50", "format": "in vivo", "design": "key to Arabidopsis seed germination inhibition potency: + + + +: The other derivatives were scored by potency relative to S-ABA.; (S)-ABA potency = + + +.; + +: The other derivatives were scored by potency relative to S-ABA.; ++: The other derivatives were scored by potency relative to S-ABA.; +: The other derivatives were scored by potency relative to S-ABA.; −− = no effect", "conditions": "for Arabidopsis seed germination inhibition potency: 0.01-10.0 ppm in 96-well plates, scored on day 7, relative to (S)-ABA; for germination inhibition potency compared to (S)-ABA (in words): Arabidopsis seed germination", "experimental": "Seed Germination Inhibition Assay for Testing Examples 1-28 and 47-50 To determine the germination inhibition potency of the (S)-ABA derivatives, germination assays were performed with the model plant Arabidopsis thaliana. Arabidopsis seed was sterilized by shaking for five minutes in 200-proof ethanol, and followed by shaking for five minutes in a 10% bleach solution. The seeds were then washed five times in sterile, distilled, de-ionized water and suspended in 0.1% phytoagar. The tubes containing the seeds were wrapped in aluminum foil and stratified at 4° C. for two days. All compounds were tested at eight concentrations of 0 (DMSO control), 0.01, 0.03, 0.1, 0.3, 1.0, 3.0, and 10.0 ppm in 96-well plates. Each plate contained eight replicates of each concentration of the test compound and eight replicates of (S)-ABA at 0.1 ppm as the positive control. As an additional set of controls, each run of the assay also contained one plate dosed with (S)-ABA covering a range of concentrations up to 10 ppm. For each compound, 10× stock solutions corresponding to each of the tested concentrations were prepared in distilled and de-ionized water containing 5% DMSO. The stock test solution (10 μL) was added to each well according to the scheme described above, and 90 μL of ½× Murashige and Skoog media containing 1.2% Bactoagar was then added to each well (final DMSO concentration was 0.5%). When the media solidified, ten to fifteen sterile stratified Arabidopsis seeds were distributed into each well using a repeat pipettor. The plates were sealed with surgical tape and placed in a growth chamber running diurnal cycles of 12 hours of light at 24° C. and 12 hours of darkness at 19° C. The plates were scanned on days 3 through 7, and scored on day 7. The 3′-substituted-(S)-ABA derivatives were scored on ability to inhibit germination relative to the potency of (S)-ABA. The results are summarized below in “Table 1: Arabidopsis seed germination inhibition activity of (S)-ABA derivatives.”"}
{"smiles": "CCC1=C(C)[C@](O)(/C=C/C(C)=C\\C(=O)OC)C(C)(C)CC1=O", "note": "[Example 1, (2Z,4E)-methyl 5-((S)-3-ethyl-1-hydroxy-2,6,6-trimethyl-4-oxocyclohex-2-en-1-yl)-3-methylpenta-2,4-dienoate]", "values": [{"measurement": "Arabidopsis seed germination inhibition potency", "result": "+ + +"}, {"measurement": "germination inhibition potency compared to (S)-ABA (in words)", "result": "just as effective as (S)-ABA"}]}
{"smiles": "CCC1=C(C)[C@](O)(/C=C/C(C)=C\\C(=O)O)C(C)(C)CC1=O", "note": "[Example 2, (2Z,4E)-5-((S)-3-ethyl-1-hydroxy-2,6,6-trimethyl-4-oxocyclohex-2-en-1-yl)-3-methylpenta-2,4-dienoic acid]", "values": [{"measurement": "Arabidopsis seed germination inhibition potency", "result": "+ + +"}, {"measurement": "germination inhibition potency compared to (S)-ABA (in words)", "result": "just as effective as (S)-ABA"}]}
{"smiles": "CCCC1=C(C)[C@](O)(/C=C/C(C)=C\\C(=O)O)C(C)(C)CC1=O", "note": "[Example 3, (2Z,4E)-5-((S)-1-hydroxy-2,6,6-trimethyl-4-oxo-3-propylcyclohex-2-en-1-yl)-3-methylpenta-2,4-dienoic acid]", "values": [{"measurement": "Arabidopsis seed germination inhibition potency", "result": "+ +"}]}
{"smiles": "C=CCC1=C(C)[C@](O)(/C=C/C(C)=C\\C(=O)O)C(C)(C)CC1=O", "note": "[Example 4, (2Z,4E)-5-((S)-3-allyl-1-hydroxy-2,6,6-trimethyl-4-oxocyclohex-2-en-1-yl)-3-methylpenta-2,4-dienoic acid]", "values": [{"measurement": "Arabidopsis seed germination inhibition potency", "result": "+ + +"}, {"measurement": "germination inhibition potency compared to (S)-ABA (in words)", "result": "just as effective as (S)-ABA"}]}
{"smiles": "C#CCC1=C(C)[C@](O)(/C=C/C(C)=C\\C(=O)O)C(C)(C)CC1=O", "note": "[Example 5, (2Z,4E)-5-((S)-1-hydroxy-2,6,6-trimethyl-4-oxo-3-(prop-2-yn-1-yl)cyclohex-2-en-1-yl)-3-methylpenta-2,4-dienoic acid]", "values": [{"measurement": "Arabidopsis seed germination inhibition potency", "result": "+ + + +"}, {"measurement": "germination inhibition potency compared to (S)-ABA (in words)", "result": "more potent than (S)-ABA"}]}
{"smiles": "CCCCC1=C(C)[C@](O)(/C=C/C(C)=C\\C(=O)O)C(C)(C)CC1=O", "note": "[Example 6, (2Z,4E)-5-((S)-3-butyl-1-hydroxy-2,6,6-trimethyl-4-oxocyclohex-2-en-1-yl)-3-methylpenta-2,4-dienoic acid]", "values": [{"measurement": "Arabidopsis seed germination inhibition potency", "result": "+"}]}
{"smiles": "CC1=C(CCCCO)C(=O)CC(C)(C)[C@@]1(O)/C=C/C(C)=C\\C(=O)O", "note": "[Example 7, (2Z,4E)-5-((S)-1-hydroxy-3-(4-hydroxybutyl)-2,6,6-trimethyl-4-oxocyclohex-2-en-1-yl)-3-methylpenta-2,4-dienoic acid]", "values": [{"measurement": "Arabidopsis seed germination inhibition potency", "result": "−−"}]}
{"smiles": "CCCCCC1=C(C)[C@](O)(/C=C/C(C)=C\\C(=O)O)C(C)(C)CC1=O", "note": "[Example 8, (2Z,4E)-5-((S)-1-hydroxy-2,6,6-trimethyl-4-oxo-3-pentylcyclohex-2-en-1-yl)-3-methylpenta-2,4-dienoic acid]", "values": [{"measurement": "Arabidopsis seed germination inhibition potency", "result": "−−"}]}
{"smiles": "CC1=C(CC(=O)OC(C)(C)C)C(=O)CC(C)(C)[C@@]1(O)/C=C/C(C)=C\\C(=O)O", "note": "[Example 9, (2Z,4E)-5-((S)-3-(2-(tert-butoxy)-2-oxoethyl)-1-hydroxy-2,6,6-trimethyl-4-oxocyclohex-2-en-1-yl)-3-methylpenta-2,4-dienoic acid]", "values": [{"measurement": "Arabidopsis seed germination inhibition potency", "result": "−−"}]}
{"smiles": "CC1=C(CC(=O)O)C(=O)CC(C)(C)[C@@]1(O)/C=C/C(C)=C\\C(=O)O", "note": "[Example 10, (2Z,4E)-5-((S)-3-(carboxymethyl)-1-hydroxy-2,6,6-trimethyl-4-oxocyclohex-2-en-1-yl)-3-methylpenta-2,4-dienoic acid]", "values": [{"measurement": "Arabidopsis seed germination inhibition potency", "result": "−−"}]}
{"smiles": "CC1=C(CC#N)C(=O)CC(C)(C)[C@@]1(O)/C=C/C(C)=C\\C(=O)O", "note": "[Example 11, (2Z,4E)-5-((S)-3-(cyanomethyl)-1-hydroxy-2,6,6-trimethyl-4-oxocyclohex-2-en-1-yl)-3-methylpenta-2,4-dienoic acid]", "values": [{"measurement": "Arabidopsis seed germination inhibition potency", "result": "++"}]}
{"smiles": "CC1=C(CC(=O)N(C)C)C(=O)CC(C)(C)[C@@]1(O)/C=C/C(C)=C\\C(=O)O", "note": "[Example 12, (2Z,4E)-5-((S)-3-(2-(dimethylamino)-2-oxoethyl)-1-hydroxy-2,6,6-trimethyl-4-oxocyclohex-2-en-1-yl)-3-methylpenta-2,4-dienoic acid]", "values": [{"measurement": "Arabidopsis seed germination inhibition potency", "result": "−−"}]}
{"smiles": "CC1=C(Cc2ccccc2)C(=O)CC(C)(C)[C@@]1(O)/C=C/C(C)=C\\C(=O)O", "note": "[Example 13, (2Z,4E)-5-((S)-3-benzyl-1-hydroxy-2,6,6-trimethyl-4-oxocyclohex-2-en-1-yl)-3-methylpenta-2,4-dienoic acid]", "values": [{"measurement": "Arabidopsis seed germination inhibition potency", "result": "−−"}]}
{"smiles": "CC1=C(Cc2ccc3ccccc3c2)C(=O)CC(C)(C)[C@@]1(O)/C=C/C(C)=C\\C(=O)O", "note": "[Example 14, (2Z,4E)-5-((S)-1-hydroxy-2,6,6-trimethyl-3-(naphthalen-2-ylmethyl)-4-oxocyclohex-2-en-1-yl)-3-methylpenta-2,4-dienoic acid]", "values": [{"measurement": "Arabidopsis seed germination inhibition potency", "result": "−−"}]}
{"smiles": "CC1=C(Cc2cccc3ccccc23)C(=O)CC(C)(C)[C@@]1(O)/C=C/C(C)=C\\C(=O)O", "note": "[Example 15, (2Z,4E)-5-((S)-1-hydroxy-2,6,6-trimethyl-3-(naphthalen-1-ylmethyl)-4-oxocyclohex-2-en-1-yl)-3-methylpenta-2,4-dienoic acid]", "values": [{"measurement": "Arabidopsis seed germination inhibition potency", "result": "−−"}]}
{"smiles": "CC1=C(Cc2ccccc2C)C(=O)CC(C)(C)[C@@]1(O)/C=C/C(C)=C\\C(=O)O", "note": "[Example 16, (2Z,4E)-5-((S)-1-hydroxy-2,6,6-trimethyl-3-(2-methylbenzyl)-4-oxocyclohex-2-en-1-yl)-3-methylpenta-2,4-dienoic acid]", "values": [{"measurement": "Arabidopsis seed germination inhibition potency", "result": "−−"}]}
{"smiles": "CC1=C(Cc2cccc(C)c2)C(=O)CC(C)(C)[C@@]1(O)/C=C/C(C)=C\\C(=O)O", "note": "[Example 17, (2Z,4E)-5-((S)-1-hydroxy-2,6,6-trimethyl-3-(3-methylbenzyl)-4-oxocyclohex-2-en-1-yl)-3-methylpenta-2,4-dienoic acid]", "values": [{"measurement": "Arabidopsis seed germination inhibition potency", "result": "−−"}]}
{"smiles": "CC1=C(Cc2ccc(C)cc2)C(=O)CC(C)(C)[C@@]1(O)/C=C/C(C)=C\\C(=O)O", "note": "[Example 18, (2Z,4E)-5-((S)-1-hydroxy-2,6,6-trimethyl-3-(4-methylbenzyl)-4-oxocyclohex-2-en-1-yl)-3-methylpenta-2,4-dienoic acid]", "values": [{"measurement": "Arabidopsis seed germination inhibition potency", "result": "−−"}]}
{"smiles": "CC1=C(Cc2ccccc2F)C(=O)CC(C)(C)[C@@]1(O)/C=C/C(C)=C\\C(=O)O", "note": "[Example 19, (2Z,4E)-5-((S)-3-(2-fluorobenzyl)-1-hydroxy-2,6,6-trimethyl-4-oxocyclohex-2-en-1-yl)-3-methylpenta-2,4-dienoic acid]", "values": [{"measurement": "Arabidopsis seed germination inhibition potency", "result": "−−"}]}
{"smiles": "CC1=C(Cc2cccc(F)c2)C(=O)CC(C)(C)[C@@]1(O)/C=C/C(C)=C\\C(=O)O", "note": "[Example 20, (2Z,4E)-5-((S)-3-(3-fluorobenzyl)-1-hydroxy-2,6,6-trimethyl-4-oxocyclohex-2-en-1-yl)-3-methylpenta-2,4-dienoic acid]", "values": [{"measurement": "Arabidopsis seed germination inhibition potency", "result": "−−"}]}
{"smiles": "CC1=C(Cc2ccc(F)cc2)C(=O)CC(C)(C)[C@@]1(O)/C=C/C(C)=C\\C(=O)O", "note": "[Example 21, (2Z,4E)-5-((S)-3-(4-fluorobenzyl)-1-hydroxy-2,6,6-trimethyl-4-oxocyclohex-2-en-1-yl)-3-methylpenta-2,4-dienoic acid]", "values": [{"measurement": "Arabidopsis seed germination inhibition potency", "result": "−−"}]}
{"smiles": "CC1=C(Cc2ccc(F)c(F)c2)C(=O)CC(C)(C)[C@@]1(O)/C=C/C(C)=C\\C(=O)O", "note": "[Example 22, (2Z,4E)-5-((S)-3-(3,4-difluorobenzyl)-1-hydroxy-2,6,6-trimethyl-4-oxocyclohex-2-en-1-yl)-3-methylpenta-2,4-dienoic acid]", "values": [{"measurement": "Arabidopsis seed germination inhibition potency", "result": "−−"}]}
